Holding throughout (type): cell-based
In data set [1] the test system is RSV A2 strain. Kind of data set: RSV A2 induced CPE in HEp2 cells. The settings on record: human respiratory syncytial virus; for IC50: HEp-2, 120 h, 5 days; for inhibition at 0.01 µg/mL: HEp-2, at 0.01 μg/mL. The protocol:
(§1) HEp2 cells were seeded (10^3/well/50 μL) in 384-well plates (Catalogue number 353962, BD Falcon, Oxford, UK) in 5% FBS-DMEM (containing 2 mM L-glutamine and 1 mM sodium pyruvate) one day before infection. […] Simultaneously, test compounds (0.5 μL DMSO solution) were added to 100 μL of HEp2 cell culture with virus solution to provide a final DMSO solution of 0.5%. […] Sigma-Aldrich, Dorset, UK) was added to each well and the plate incubated for a further 6 hr (37° C./5% CO2). The fluorescence of each well [545 nm (excitation)/590 nm (emission)] was determined using a multi-scanner (Clariostar: BMG, Buckinghamshire, UK). The percentage inhibition for each well was calculated and the IC50, IC75 and IC90 values were calculated from the concentration-response curve generated for each test compound.

The nature of data set [2]: Cell viability: resazurin assay. The settings on record: human, HEp2 cells. The protocol:
HEp2 cells were seeded in 384-well plates (10^3/well/50 μL; BD Falcon Ref 353962) in FBS DMEM (5%, containing 2 mM L-glutamine and 1 mM sodium pyruvate) one day before experimentation. Serum-free DMEM (50 μL) was added to test wells, while for control wells the media was removed and sterile water (100 μL) added. Test compounds (0.5 μL DMSO solution) were added to give a final DMSO concentration of 0.5%. HEp2 cells were incubated with each test compound for 5 days (37° C./5% CO2 in 2.5% FBS) and then resazurin stock solution (5 μL; 0.03%) was added to each well and the plate incubated for a further 6 hr (37° C./5% CO2). The fluorescence of each well at 545 nm (excitation) and 590 nm (emission) was determined using a multi-scanner (Clariostar: BMG Labtech). The percentage loss of cell viability was calculated for each well relative to vehicle (0.5% DMSO) treatment. Note that any apparent increase in cell viability associated with test compound treatment relative to vehicle is consequently tabulated as a negative percentage. Where appropriate, a CC50 value was calculated from the concentration-response curve generated from the concentration-response curve for each test compound.
A general note: The colour change of resazurin is a common sign of viable cells or microbes.

For data set [3], the system named is RSV B Washington strain. In words: RSV B induced CPE in HEp2 cells. The settings on record: human respiratory syncytial virus; for IC50: HEp-2, 144 h, 6 days; for inhibition at 0.1 µg/mL: HEp-2, at 0.1 μg/mL; for inhibition at 1 µg/mL: HEp-2, at 1 μg/mL. The protocol:
as §1

For `Cc1cnc(N2CC3(CCOCC3)C2)c(C(=O)Nc2ccc(C(=O)N3CCc4cc(C(=O)Nc5c(F)cccc5F)sc4-c4sccc43)c(F)c2)c1` [Example 18, N-(2,6-difluorophenyl)-4-(2-fluoro-4-(5-methyl-2-(7-oxa-2-azaspiro[3.5]nonan-2-yl)nicotinamido)benzoyl)-5,6 dihydro-4H-dithieno[3,2-b:2′,3′-d]azepine-8-carboxamide], in data set [1], inhibition was half-maximal at 0.17 nM (IC50) and testing at 0.01 µg/mL gave an inhibition of 100%. Moreover, the CC50 (usually the concentration giving 50% cytotoxicity) at 5 days in data set [2] was greater than 13400 nM. Further, in data set [3], the IC50 (commonly the midpoint of a concentration-inhibition curve) was found to be 14 nM and at 0.1 µg/mL the inhibition was 92%.

`Cc1cnc(N2CC3(CCOCC3)C2)c(C(=O)Nc2ccc(C(=O)N3CCc4cc(C(=O)Nc5c(F)cccc5Cl)sc4-c4sccc43)c(F)c2)c1` [Example 19, N-(2-chloro-6-fluorophenyl)-4-(2-fluoro-4-(5-methyl-2-(7-oxa-2-azaspiro[3.5]nonan-2-yl)nicotinamido)benzoyl)-5,6-dihydro-4H-dithieno[3,2-b:2′,3′-d]azepine-8-carboxamide]: in data set [1], the IC50 came out at 0.18 nM and testing at 0.01 µg/mL gave an inhibition of 93%. Moreover, in data set [2], the CC50 at 5 days was greater than 13200 nM. In data set [3], the IC50 stood at 29 nM and the inhibition (as a rule, the change of the read-out against control, counted positive when it falls) at 1 µg/mL turned out to be 86%.

In data set [1], `COc1cnc(N2CC3(CCOCC3)C2)c(C(=O)Nc2ccc(C(=O)N3CCc4cc(C(=O)Nc5c(F)cccc5F)sc4-c4sccc43)cc2)c1` [Example 20, N-(2,6-difluorophenyl)-4-(4-(5-methoxy-2-(7-oxa-2-azaspiro[3.5]nonan-2-yl)nicotinamido)benzoyl)-5,6-dihydro-4H-dithieno[3,2-b:2′,3′-d]azepine-8-carboxamide] displayed a concentration for half-maximal inhibition (IC50) of 0.17 nM and an inhibition at 0.01 µg/mL of 100%. Further, the CC50 at 5 days in data set [2] is greater than 13500 nM. Further, in data set [3], the IC50 turned out to be 18 nM and testing at 0.1 µg/mL gave an inhibition of 100%.

On to `Cc1ccc(C(=O)Nc2ccc(C(=O)N3CCc4cc(C(=O)Nc5c(F)cccc5F)sc4-c4sccc43)cc2)c(N2CC3(CCOCC3)C2)n1` [Example 21, N-(2,6-difluorophenyl)-4-(4-(6-methyl-2-(7-oxa-2-azaspiro [3.5]nonan-2-yl)nicotinamido)benzoyl)-5,6-dihydro-4H-dithieno[3,2-b:2′,3′-d]azepine-8-carboxamide], for which, in data set [1], inhibition was half-maximal at 0.37 nM (IC50) and the inhibition at 0.01 µg/mL turned out to be 91%. For the same molecule, the CC50 at 5 days in data set [2] was greater than 13800 nM. In data set [3], this molecule had an IC50 of 17 nM and an inhibition at 0.1 µg/mL of 91%.

In data set [1], `COc1ccc(C(=O)Nc2ccc(C(=O)N3CCc4cc(C(=O)Nc5c(F)cccc5F)sc4-c4sccc43)cc2)c(N2CC3(CCOCC3)C2)n1` [Example 22, N-(2,6-difluorophenyl)-4-(4-(6-methoxy-2-(7-oxa-2-azaspiro[3.5]nonan-2-yl)nicotinamido)benzoyl)-5,6-dihydro-4H-dithieno[3,2-b:2′,3′-d]azepine-8-carboxamide] displayed an IC50 of 1.7 nM and an inhibition at 0.01 µg/mL of 94%. Moreover, the CC50 at 5 days in data set [2] is greater than 13500 nM. In data set [3], the IC50 was found to be 159 nM and the inhibition at 1 µg/mL was 94%.

In data set [1], `Cc1cc(C(=O)Nc2ccc(C(=O)N3CCc4cc(C(=O)Nc5c(F)cccc5F)sc4-c4sccc43)c(F)c2)c(N2CC3(CCOCC3)C2)nc1C` [Example 23, N-(2,6-difluorophenyl)-4-(4-(5,6-dimethyl-2-(7-oxa-2-azaspiro[3.5]nonan-2-yl)nicotinamido)-2-fluorobenzoyl)-5,6-dihydro-4H-dithieno[3,2-b:2′,3′-d]azepine-8-carboxamide] gave an IC50 of 0.67 nM and an inhibition at 0.01 µg/mL of 96%. In addition, the 50% cytotoxic concentration (CC50) at 5 days in data set [2] was greater than 13200 nM. In data set [3], this molecule gave an IC50 of 70 nM and an inhibition at 1 µg/mL of 96%.

Take `Cc1cccc(F)c1NC(=O)c1cc2c(s1)-c1sccc1N(C(=O)c1ccc(NC(=O)c3cc4c(nc3N3CC5(CCOCC5)C3)CCC4)cc1)CC2` [Example 24, 4-(4-(2-(7-oxa-2-azaspiro[3.5]nonan-2-yl)-6,7-dihydro-5H-cyclopenta[b]pyridine-3-carboxamido)benzoyl)-N-(2-fluoro-6-methylphenyl)-5,6-dihydro-4H-dithieno[3,2-b:2′,3′-d] azepine-8-carboxamide]: in data set [1], the IC50 came to 0.54 nM and 0.01 µg/mL produced 98% inhibition. The molecule also returned a CC50 at 5 days in data set [2] greater than 13400 nM. In data set [3], it took 11 nM to reach half-maximal inhibition (IC50) and the inhibition at 0.1 µg/mL is 84%.

As for `O=C(Nc1c(F)cccc1F)c1cc2c(s1)-c1sccc1N(C(=O)c1ccc(NC(=O)c3cc4c(nc3N3CC5(CCOCC5)C3)CCOC4)cc1)CC2` [Example 25, N-(4-(8-((2,6-difluorophenyl)carbamoyl)-5,6-dihydro-4H-dithieno[3,2-b:2′,3′-d]azepine-4-carbonyl)phenyl)-2-(7-oxa-2-azaspiro[3.5]nonan-2-yl)-7,8-dihydro-5H-pyrano[4,3-b]pyridine-3-carboxamide], in data set [1], the IC50 was found to be 0.18 nM and the inhibition at 0.01 µg/mL came to 100%. In addition, the CC50 at 5 days in data set [2] is greater than 13000 nM. In data set [3], this molecule gave an IC50 of 10 nM and an inhibition at 0.1 µg/mL of 89%.

As for `Cc1cccc(F)c1NC(=O)c1cc2c(s1)-c1sccc1N(C(=O)c1ccc(NC(=O)c3cc4c(nc3N3CC5(CCOCC5)C3)CCOC4)cc1)CC2` [Example 26, N-(4-(8-((2-fluoro-6-methylphenyl)carbamoyl)-5,6-dihydro-4H-dithieno[3,2-b:2′,3′-d]azepine-4-carbonyl)phenyl)-2-(7-oxa-2-azaspiro[3.5]nonan-2-yl)-7,8-dihydro-5H-pyrano[4,3-b]pyridine-3-carboxamide], in data set [1], the IC50 came to 1 nM and the inhibition at 0.01 µg/mL is 98%. The molecule also came in with a cytotoxic concentration (CC50) at 5 days in data set [2] greater than 13100 nM. In data set [3], this molecule registered an IC50 of 17 nM and an inhibition at 0.1 µg/mL of 93%.

In data set [1], `O=C(Nc1c(F)cccc1F)c1cc2c(s1)-c1sccc1N(C(=O)c1ccc(NC(=O)c3cc4ccccc4nc3N3CC4(CCOCC4)C3)cc1)CC2` [Example 27, 4-(4-(2-(7-oxa-2-azaspiro[3.5]nonan-2-yl)quinoline-3-carboxamido)benzoyl)-N-(2,6-difluorophenyl)-5,6-dihydro-4H-dithieno[3,2-b:2′,3′-d]azepine-8-carboxamide] registered an IC50 of 0.63 nM and an inhibition at 0.01 µg/mL of 94%. The molecule further gave a cytotoxic concentration (CC50) at 5 days in data set [2] greater than 13100 nM. In data set [3], this molecule came in with an IC50 of 32 nM and an inhibition at 1 µg/mL of 93%.

In data set [1], `O=C(Nc1c(F)cccc1F)c1cc2c(s1)-c1sccc1N(C(=O)c1ccc(NC(=O)c3cc4sccc4nc3N3CC4(CCOCC4)C3)cc1F)CC2` [Example 28, 4-(4-(5-(7-oxa-2-azaspiro[3.5]nonan-2-yl)thieno[3,2-b]pyridine-6-carboxamido)-2-fluorobenzoyl)-N-(2,6-difluorophenyl)-5,6-dihydro-4H-dithieno[3,2-b:2′,3′-d] azepine-8-carboxamide] yielded an IC50 of 0.48 nM and an inhibition at 0.01 µg/mL of 89%. The molecule also displayed a CC50 at 5 days in data set [2] greater than 12700 nM. In data set [3], this molecule had an IC50 of 15 nM and an inhibition at 0.1 µg/mL of 92%.

In data set [1], `O=C(Nc1c(F)cccc1F)c1cc2c(s1)-c1sccc1N(C(=O)c1ccc(NC(=O)c3cccnc3N3CCC4(CC3)COC4)cc1)CC2` [Example 29, 4-(4-(2-(2-oxa-7-azaspiro[3.5]nonan-7-yl)nicotinamido)benzoyl)-N-(2,6-difluorophenyl)-5,6-dihydro-4H-dithieno [3,2-b:2′,3′-d]azepine-8-carboxamide] gave an IC50 of 3.6 nM and an inhibition at 0.01 µg/mL of 100%. The molecule further came in with a CC50 at 5 days in data set [2] greater than 14000 nM. In data set [3], this molecule showed an IC50 of 490 nM and an inhibition at 1 µg/mL of 51%.

For the molecule `Cc1cnc(N2CCC3(CC2)COC3)c(C(=O)Nc2ccc(C(=O)N3CCc4cc(C(=O)Nc5c(F)cccc5F)sc4-c4sccc43)cc2)c1` [Example 30, N-(2,6-difluorophenyl)-4-(4-(5-methyl-2-(2-oxa-7-azaspiro[3.5]nonan-7-yl)nicotinamido)benzoyl)-5,6-dihydro-4H-dithieno[3,2-b:2′,3′-d]azepine-8-carboxamide], in data set [1], the IC50 was found to be 0.42 nM and testing at 0.01 µg/mL gave an inhibition of 100%. In data set [2], this molecule displayed a CC50 at 5 days greater than 13800 nM. In data set [3], this molecule gave an IC50 of 130 nM and an inhibition at 1 µg/mL of 100%.

For the origin of these results see patent US10626126B2, “Compounds” (Pulmocide Limited, priority 2016, dated 2020).
